The source of these data is ChEMBL document CHEMBL4308901, “Synthesis and biological evaluation of BMS-986120 and its deuterated derivatives as PAR4 antagonists” (Bioorg Med Chem, 2019).

pIC50: −log10 of the molar value.

For this assay, the species on record is Mus musculus. Nature of the assay: Antiplatelet activity in ICR mouse platelet rich plasma assessed as inhibition of PAR4-AP-induced platelet aggregation pretreated for 5 mins followed by PAR4-AP addition by aggregometric analysis. The class given is functional.
For the compound `COc1cc(OCc2nc(N3CCOCC3)sc2C)c2cc(-c3cn4nc(OC)sc4n3)oc2c1`, the pIC50 was 8.11.

For the compound `[2H]C(Oc1cc(OC)cc2oc(-c3cn4nc(OC)sc4n3)cc12)c1nc(N2CCOCC2)sc1C` (stereo not drawn), the pIC50 was 7.84.

Regarding `[2H]C([2H])([2H])Oc1cc(OCc2nc(N3CCOCC3)sc2C)c2cc(-c3cn4nc(OC([2H])([2H])[2H])sc4n3)oc2c1`, the pIC50 is 8.16.

As for `[2H]C([2H])([2H])Oc1nn2cc(-c3cc4c(OCc5nc(N6CCOCC6)sc5C)cc(OC)cc4o3)nc2s1`, the pIC50 is 8.06.

Consider `[2H]C([2H])([2H])Oc1cc(OCc2nc(N3CCOCC3)sc2C)c2cc(-c3cn4nc(OC)sc4n3)oc2c1`, for which the pIC50 was 8.20.

For `[2H]C(Oc1cc(OC([2H])([2H])[2H])cc2oc(-c3cn4nc(OC)sc4n3)cc12)c1nc(N2CCOCC2)sc1C` (stereo not drawn), the pIC50 is 8.09.

`[2H]C(Oc1cc(OC([2H])([2H])[2H])cc2oc(-c3cn4nc(OC([2H])([2H])[2H])sc4n3)cc12)c1nc(N2CCOCC2)sc1C` (stereo not drawn): the pIC50 is 8.02.

Consider `[2H]C(Oc1cc(OC)cc2oc(-c3cn4nc(OC([2H])([2H])[2H])sc4n3)cc12)c1nc(N2CCOCC2)sc1C` (stereo not drawn), for which the pIC50 was 8.11.

The term pIC50 denotes the negative decadic logarithm of the IC50, by convention in mol/L.
